US11673883B2, “Heterocyclic compounds as immunomodulators” (Incyte Corporation, priority 2016, dated 2023)

The compounds below were run against PD-1/PD-L1 protein/protein interaction (Homo sapiens (Human), UniProt Q9NZQ7) (assay: PD-1/PD-L1 Homogeneous Time-Resolved Fluorescence (HTRF) Binding Assay). Conditions: recombinant human PD-L1 (19-238) His-tag, human PD-1 (25-167) Fc tag; 25° C., PBS pH 7.4.
PD-1/PD-L1 protein/protein interaction, sequence (Q9NZQ7 19-238): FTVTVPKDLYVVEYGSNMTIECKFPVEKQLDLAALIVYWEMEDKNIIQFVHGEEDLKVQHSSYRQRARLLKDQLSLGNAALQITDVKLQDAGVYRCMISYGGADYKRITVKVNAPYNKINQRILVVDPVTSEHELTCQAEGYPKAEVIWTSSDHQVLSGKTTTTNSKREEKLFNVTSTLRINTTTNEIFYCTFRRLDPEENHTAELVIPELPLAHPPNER
Method: Example A. PD-1/PD-L1 Homogeneous Time-Resolved Fluorescence (HTRF) Binding Assay
The assays were conducted in a standard black 384-well polystyrene plate with a final volume of 20 μL. Inhibitors were first serially diluted in DMSO and then added to the plate wells before the addition of other reaction components. The final concentration of DMSO in the assay was 1%. The assays were carried out at 25° C. in the PBS buffer (pH 7.4) with 0.05% Tween-20 and 0.1% BSA. Recombinant human PD-L1 protein (19-238) with a His-tag at the C-terminus was purchased from AcroBiosystems (PD1-H5229). Recombinant human PD-1 protein (25-167) with Fc tag at the C-terminus was also purchased from AcroBiosystems (PD1-H5257). PD-L1 and PD-1 proteins were diluted in the assay buffer and […] was added to the plate well. Plates were centrifuged and proteins were preincubated with inhibitors for 40 minutes. The incubation was followed by the addition of 10 μL of HTRF detection buffer supplemented with Europium cryptate-labeled anti-human IgG (PerkinElmer-AD0212) specific for Fc and anti-His antibody conjugated to SureLight®-Allophycocyanin (APC, PerkinElmer-AD0059H). After centrifugation, the plate was incubated at 25° C. for 60 min. before reading on a PHERAstar FS plate reader (665 nm/620 nm ratio). Final concentrations in the assay were […], 10 nM PD-L1, 1 nM europium anti-human IgG and 20 nM anti-His-Allophycocyanin. IC50 determination was performed by fitting the curve of percent control activity versus the log of the inhibitor concentration using the GraphPad Prism 5.0 software.
For `Cc1c(-c2ccccc2)cccc1N1CCC(NC2CCc3c(c(C(=O)O)nn3C)C2)CC1` (racemic) [Example 38, 1-methyl-5-(1-(2-methylbiphenyl-3-yl)piperidin-4-ylamino)-4,5,6,7-tetrahydro-1H-indazole-3-carboxylic acid], the IC50 was ≤ 100 nM.
`Cc1c(-c2ccccc2)cccc1N1CCC(NC2CCOC2)CC1` (racemic) [Example 42, 1-(2-methylbiphenyl-3-yl)-N-(tetrahydrofuran-3-yl)piperidin-4-amine] was tested, and the IC50 was ≤ 100 nM.
For `COCC(C)NC1CCN(c2cccc(-c3ccccc3)c2C)CC1` (racemic) [Example 44, N-(1-methoxypropan-2-yl)-1-(2-methylbiphenyl-3-yl)piperidin-4-amine], the IC50 was ≤ 100 nM.
With `C[C@@H]1CN(C2CCN(c3cccc(-c4ccc5c(c4)OCCO5)c3C#N)CC2)C[C@H]1CO` (relative stereo) [Example 9, 2-(2,3-dihydrobenzo[b][1,4]dioxin-6-yl)-6-(4-(trans-3-(hydroxymethyl)-4-methylpyrrolidin-1-yl)piperidin-1-yl)benzonitrile] the IC50 was ≤ 100 nM.
`N#Cc1c(-c2ccc3c(c2)OCCO3)cccc1N1CCC(N[C@@H]2CCCC[C@H]2CO)CC1` (relative stereo) [Example 12, 2-(2,3-dihydrobenzo[b][1,4]dioxin-6-yl)-6-(4-(trans-2-(hydroxymethyl)cyclohexylamino)piperidin-1-yl)benzonitrile] was tested, and the IC50 was ≤ 100 nM.
With `N#Cc1c(-c2ccc3c(c2)OCCO3)cccc1N1CCC(NC[C@@H]2CCCC[C@@H]2O)CC1` (relative stereo) [Example 19, 2-(2,3-dihydro-1,4-benzodioxin-6-yl)-6-[4-({[cis-2-hydroxycyclohexyl]methyl}amino)piperidin-1-yl]benzonitrile] the IC50 was ≤ 100 nM.
`Cc1c(-c2ccccc2)cccc1N1CCC(N[C@H]2CCC[C@H]2CO)CC1` (relative stereo) [Example 34, (cis-2-(1-(2-methylbiphenyl-3-yl)piperidin-4-ylamino)cyclopentyl) methanol] was tested, and the IC50 was ≤ 100 nM.
For `Cc1c(-c2ccccc2)cccc1N1CCC(NC2CCC(C#N)CC2)CC1` (single isomer, unassigned) [40 (peak 1), 4-(1-(2-methylbiphenyl-3-yl)piperidin-4-ylamino)cyclohexane-carbonitrile], the IC50 was ≤ 100 nM.
With `Cc1c(-c2ccccc2)cccc1N1CCC(NC2CCC(C#N)CC2)CC1` (single isomer, unassigned) [40 (peak 2), 4-(1-(2-methylbiphenyl-3-yl)piperidin-4-ylamino)cyclohexane carbonitrile] the IC50 was ≤ 100 nM.
With `Cc1c(-c2ccccc2)cccc1N1CCC(NC2CCC(C(=O)O)CC2)CC1` (single isomer, unassigned) [41 (peak 1), 4-(1-(2-methylbiphenyl-3-yl)piperidin-4-ylamino)cyclohexane-carboxylic acid] the IC50 was ≤ 100 nM.
`Cc1c(-c2ccccc2)cccc1N1CCC(NC2CCC(C(=O)O)CC2)CC1` (single isomer, unassigned) [41 (peak 2), 4-(1-(2-methylbiphenyl-3-yl)piperidin-4-ylamino)cyclohexane-carboxylic acid] was tested, and the IC50 was ≤ 100 nM.
In the case of `Cc1c(-c2ccccc2)cccc1N1CCC(NC2CCCC(C(=O)O)C2)CC1` (single isomer, unassigned) [46 (peak 1), 3-(1-(2-methylbiphenyl-3-yl)piperidin-4-ylamino)cyclohexane carboxylic acid], the IC50 is reported as ≤ 100 nM.
For `Cc1c(-c2ccccc2)cccc1N1CCC(NC2CCCC(C(=O)O)C2)CC1` (single isomer, unassigned) [46 (peak 2), 3-(1-(2-methylbiphenyl-3-yl)piperidin-4-ylamino)cyclohexane carboxylic acid], the IC50 was ≤ 100 nM.
`Cc1c(-c2ccccc2)cccc1N1CCC(NC2CCC(C(=O)O)(c3ccc(Cl)cc3)CC2)CC1` (single isomer, unassigned) [47 (peak 1), 1-(4-chlorophenyl)-4-(1-(2-methylbiphenyl-3-yl)piperidin-4-ylamino)cyclohexane carboxylic acid] was tested, and the IC50 was ≤ 100 nM.
For `Cc1c(-c2ccccc2)cccc1N1CCC(NC2CCC(C(=O)O)(c3ccc(Cl)cc3)CC2)CC1` (single isomer, unassigned) [47 (peak 2), 1-(4-chlorophenyl)-4-(1-(2-methylbiphenyl-3-yl)piperidin-4-ylamino)cyclohexane-carboxylic acid], the IC50 was ≤ 100 nM.
With `N#Cc1c(-c2ccc3c(c2)OCCO3)cccc1N1CCC(N[C@H]2C[C@@H](O)C2)CC1` [Example 1, 2-(2,3-dihydro-1,4-benzodioxin-6-yl)-6-{4-[(cis-3-hydroxycyclobutyl)amino]piperidin-1-yl}benzonitrile] the IC50 was ≤ 100 nM.
For `N#Cc1c(-c2ccc3c(c2)OCCO3)cccc1N1CCC(NC2CC2)CC1` [Example 2, 2-(4-(cyclopropylamino)piperidin-1-yl)-6-(2,3-dihydrobenzo[b][1,4]dioxin-6-yl)benzonitrile], the IC50 was ≤ 100 nM.
`CN(C)C1CCN(c2cccc(-c3ccc4c(c3)OCCO4)c2C#N)CC1` [Example 3, 2-(2,3-dihydrobenzo[b][1,4]dioxin-6-yl)-6-(4-(dimethylamino)piperidin-1-yl)benzonitrile] was tested, and the IC50 was 100 to 500 nM.
In the case of `N#Cc1c(-c2ccc3c(c2)OCCO3)cccc1N1CCC(NCC2(CO)CC2)CC1` [Example 4, 2-(2,3-dihydrobenzo[b][1,4]dioxin-6-yl)-6-(4-((l-(hydroxymethyl)cyclopropyl)methylamino)piperidin-1-yl)benzonitrile], the IC50 is reported as ≤ 100 nM.
In the case of `Cn1cc(CCNC2CCN(c3cccc(-c4ccc5c(c4)OCCO5)c3C#N)CC2)cn1` [Example 5, 2-(2,3-dihydrobenzo[b][1,4]dioxin-6-yl)-6-(4-(2-(1-methyl-1H-pyrazol-4-yl)ethylamino)piperidin-1-yl)benzonitrile], the IC50 is reported as ≤ 100 nM.
With `CC(C)(CO)CNC1CCN(c2cccc(-c3ccc4c(c3)OCCO4)c2C#N)CC1` [Example 6, 2-(2,3-dihydrobenzo[b][1,4]dioxin-6-yl)-6-(4-(3-hydroxy-2,2-dimethylpropylamino)piperidin-1-yl)benzonitrile] the IC50 was ≤ 100 nM.
For `N#Cc1c(-c2ccc3c(c2)OCCO3)cccc1N1CCC(NC2CCOCC2)CC1` [Example 7, 2-(2,3-dihydrobenzo[b][1,4]dioxin-6-yl)-6-(4-(tetrahydro-2H-pyran-4-ylamino)piperidin-1-yl)benzonitrile], the IC50 was ≤ 100 nM.
`N#Cc1c(-c2ccc3c(c2)OCCO3)cccc1N1CCC(N[C@H]2C[C@@H](CO)C2)CC1` [Example 8, 2-(2,3-dihydrobenzo[b][1,4]dioxin-6-yl)-6-(4-(cis-3-(hydroxymethyl)cyclobutyl-amino)piperidin-l-yl)benzonitrile] was tested, and the IC50 was ≤ 100 nM.
In the case of `N#Cc1c(-c2ccc3c(c2)OCCO3)cccc1N1CCC(NC2CC3(CCC3)C2)CC1` [Example 10, 2-(2,3-dihydrobenzo[b][1,4]dioxin-6-yl)-6-(4-(spiro[3.3]heptan-2-ylamino)piperidin-l-yl)benzonitrile], the IC50 is reported as ≤ 100 nM.
`COc1ccc(C2(CNC3CCN(c4cccc(-c5ccc6c(c5)OCCO6)c4C#N)CC3)CCOCC2)cc1` [Example 11, 2-(2,3-dihydrobenzo[b][1,4]dioxin-6-yl)-6-(4-((4-(4-methoxyphenyl)tetrahydro-2H-pyran-4-yl)methylamino)piperidin-1-yl)benzonitrile] was tested, and the IC50 was ≤ 100 nM.
With `CO[C@H]1C[C@H](NC2CCN(c3cccc(-c4ccc5c(c4)OCCO5)c3C#N)CC2)C1` [Example 13, 2-(2,3-dihydrobenzo[b][1,4]dioxin-6-yl)-6-(4-(trans-3-methoxycyclobutylamino)piperidin-1-yl)benzonitrile] the IC50 was ≤ 100 nM.
With `CO[C@H]1C[C@@H](NC2CCN(c3cccc(-c4ccc5c(c4)OCCO5)c3C#N)CC2)C1` [Example 14, 2-(2,3-dihydrobenzo[b][1,4]dioxin-6-yl)-6-(4-(cis-3-methoxycyclobutylamino)piperidin-1-yl)benzonitrile] the IC50 was ≤ 100 nM.
With `N#Cc1c(-c2ccc3c(c2)OCCO3)cccc1N1CCC(N2CCC(CCO)C2)CC1` (centres unmarked) [Example 15, 2-(2,3-dihydrobenzo[b][1,4]dioxin-6-yl)-6-(4-(3-(2-hydroxyethyl)pyrrolidin-1-yl)piperidin-1-yl)benzonitrile] the IC50 was ≤ 100 nM.
`N#Cc1c(-c2ccc3c(c2)OCCO3)cccc1N1CCC(NC2CCCOC2)CC1` (centres unmarked) [Example 16, 2-(2,3-dihydrobenzo[b][1,4]dioxin-6-yl)-6-(4-(tetrahydro-2H-pyran-3-ylamino)piperidin-1-yl)benzonitrile] was tested, and the IC50 was ≤ 100 nM.
With `N#Cc1c(-c2ccc3c(c2)OCCO3)cccc1N1CCC(NC2CCCC2CO)CC1` (stereo not drawn) [Example 17, 2-(2,3-dihydrobenzo[b][1,4]dioxin-6-yl)-6-(4-(cis-2-(hydroxymethyl)cyclopentylamino)piperidin-l-yl)benzonitrile] the IC50 was ≤ 100 nM.
For `N#Cc1c(-c2ccc3c(c2)OCCO3)cccc1N1CCC(N[C@H]2C[C@H](O)C2)CC1` [Example 18, 2-(2,3-dihydrobenzo[b][1,4]dioxin-6-yl)-6-(4-(trans-3-hydroxycyclobutylamino)piperidin-1-yl)benzonitrile], the IC50 was ≤ 100 nM.
For `N#Cc1c(-c2ccc3c(c2)OCCO3)cccc1N1CCC(NC2CCCCC2)CC1` [Example 20, 2-(4-(cyclohexylamino)piperidin-1-yl)-6-(2,3-dihydrobenzo[b][1,4]dioxin-6-yl)benzonitrile], the IC50 was ≤ 100 nM.
